Laboratory results from the CheMixHub viscosity set.
Where “and” joins values, the source holds several entries; their conditions need not be identical. Identical values can stand only once.

Test: xn = mol fraction of the nth substance listed

N[C@@H](Cc1ccccc1)C(=O)O + O
viscosity
Details | 298.15 K | 303.15 K | 308.15 K | 313.15 K
100 kPa, x1 = 0.0004 | 0.8956 mPa·s | 0.8037 mPa·s | 0.7264 mPa·s | –
100 kPa, x1 = 0.0007 | 0.8984 mPa·s | 0.8062 mPa·s | 0.7289 mPa·s | 0.6638 mPa·s
100 kPa, x1 = 0.001 | 0.901 mPa·s | 0.8088 mPa·s and 0.8113 mPa·s | 0.7315 mPa·s and 0.7343 mPa·s | 0.6689 mPa·s and 0.6664 mPa·s
100 kPa, x1 = 0.0018 | 0.9067 mPa·s | 0.8139 mPa·s | – | 0.6713 mPa·s
100 kPa, x1 = 0.0022 | 0.9093 mPa·s | 0.8169 mPa·s | 0.7395 mPa·s | 0.6738 mPa·s
101 kPa, x1 = 0.00018 | 0.912 mPa·s | 0.803 mPa·s | 0.731 mPa·s | 0.658 mPa·s
101 kPa, x1 = 0.000362 | 0.919 mPa·s | 0.809 mPa·s | 0.734 mPa·s | –
101 kPa, x1 = 0.000725 | 0.927 mPa·s | 0.822 mPa·s | 0.745 mPa·s | 0.671 mPa·s
101 kPa, x1 = 0.000909 | 0.931 mPa·s | 0.825 mPa·s | 0.749 mPa·s | 0.674 mPa·s
101 kPa, x1 = 0.00109 | 0.949 mPa·s | 0.841 mPa·s | – | 0.688 mPa·s
101 kPa, x1 = 0.00146 | 0.959 mPa·s | 0.849 mPa·s | 0.767 mPa·s | 0.692 mPa·s

COCCOC + CCCCCCCCO
298.15 K, 101 kPa
Details | viscosity [mPa·s]
x1 = 0.1384 | 4.222
x1 = 0.2654 | 2.824
x1 = 0.3825 | 1.922
x1 = 0.4907 | 1.402
x1 = 0.591 | 1.089
x1 = 0.6843 | 0.8523
x1 = 0.7713 | 0.6745
x1 = 0.8525 | 0.5661
x1 = 0.9286 | 0.4789

COCCOC + CCCCCCO
101 kPa
Details | viscosity [mPa·s]
293.15 K, x1 = 0.03644 | 4.556
293.15 K, x1 = 0.07492 | 3.875
293.15 K, x1 = 0.1757 | 2.656
293.15 K, x1 = 0.2488 | 2.089
293.15 K, x1 = 0.3376 | 1.607
293.15 K, x1 = 0.4282 | 1.265
293.15 K, x1 = 0.5085 | 1.055
293.15 K, x1 = 0.5954 | 0.873
293.15 K, x1 = 0.6767 | 0.743
293.15 K, x1 = 0.7648 | 0.633
293.15 K, x1 = 0.8067 | 0.59
293.15 K, x1 = 0.8909 | 0.547
293.15 K, x1 = 0.9608 | 0.506
303.15 K, x1 = 0.03689 | 3.354
303.15 K, x1 = 0.08234 | 2.83
303.15 K, x1 = 0.1774 | 2.045
303.15 K, x1 = 0.2433 | 1.681
303.15 K, x1 = 0.3417 | 1.289
303.15 K, x1 = 0.4228 | 1.068
303.15 K, x1 = 0.5142 | 0.867
303.15 K, x1 = 0.5898 | 0.744
303.15 K, x1 = 0.6726 | 0.638
303.15 K, x1 = 0.7604 | 0.55
303.15 K, x1 = 0.8168 | 0.505
303.15 K, x1 = 0.8829 | 0.478
303.15 K, x1 = 0.9497 | 0.439
313.15 K, x1 = 0.02681 | 2.68
313.15 K, x1 = 0.04032 | 2.555
313.15 K, x1 = 0.07518 | 2.269
313.15 K, x1 = 0.1706 | 1.69
313.15 K, x1 = 0.3414 | 1.091
313.15 K, x1 = 0.4234 | 0.908
313.15 K, x1 = 0.5104 | 0.758
313.15 K, x1 = 0.5912 | 0.651
313.15 K, x1 = 0.6717 | 0.565
313.15 K, x1 = 0.7706 | 0.482
313.15 K, x1 = 0.8138 | 0.467
313.15 K, x1 = 0.8786 | 0.432
313.15 K, x1 = 0.9463 | 0.397

CC(N)C(=O)[O-].CCCCn1cc[n+](C)c1 + O
Details | viscosity [mPa·s]
318.15 K, 100.3 kPa, x1 = 0.01781 | 1.114

COCCOC + O=[N+]([O-])c1ccccc1
298.15 K, 101 kPa
Details | viscosity [mPa·s]
x1 = 0.1318 | 1.472
x1 = 0.2546 | 1.27
x1 = 0.3693 | 1.087
x1 = 0.4766 | 0.929
x1 = 0.5774 | 0.793
x1 = 0.672 | 0.688
x1 = 0.7612 | 0.599
x1 = 0.8453 | 0.523
x1 = 0.9248 | 0.462

COC(C)=O + C1COCCO1
303.15 K, 101.3 kPa
Details | viscosity [mPa·s]
x2 = 0.1026 | 0.3813
x2 = 0.3032 | 0.4727
x2 = 0.5004 | 0.5895
x2 = 0.7187 | 0.7642
x2 = 0.8981 | 0.9562

COC(C)=O + CCCCCCCCO
viscosity [mPa·s], 101 kPa
Details | x2 = 0.053 | x2 = 0.1119 | x2 = 0.1776 | x2 = 0.2515 | x2 = 0.3351 | x2 = 0.4305 | x2 = 0.5404 | x2 = 0.6684 | x2 = 0.8194
298.15 K | 0.436 | 0.505 | 0.601 | 0.736 | 0.932 | 1.232 | 1.722 | 2.573 | 4.177
303.15 K | 0.414 | 0.478 | 0.564 | 0.685 | 0.86 | 1.126 | 1.554 | 2.288 | 3.646
308.15 K | 0.395 | 0.454 | 0.532 | 0.64 | 0.795 | 1.029 | 1.402 | 2.03 | 3.174
313.15 K | 0.374 | 0.429 | 0.5 | 0.596 | 0.734 | 0.941 | 1.267 | 1.808 | 2.773

COC(C)=O + CO
298.15 K, 101.33 kPa
Details | viscosity [mPa·s]
x1 = 0.0996 | 0.498
x1 = 0.2029 | 0.462
x1 = 0.3433 | 0.421
x1 = 0.4025 | 0.41
x1 = 0.4912 | 0.397
x1 = 0.6272 | 0.386
x1 = 0.7892 | 0.38
x1 = 0.8704 | 0.381

COCCOC + c1ccccc1
298.15 K, 101 kPa
Details | viscosity [mPa·s]
x1 = 0.0878 | 0.571
x1 = 0.1781 | 0.545
x1 = 0.2708 | 0.524
x1 = 0.3662 | 0.504
x1 = 0.4643 | 0.484
x1 = 0.5652 | 0.467
x1 = 0.6691 | 0.45
x1 = 0.7761 | 0.435
x1 = 0.8864 | 0.42

COc1ccccc1N + ClCCCl
viscosity [mPa·s], 100 kPa
Details | x1 = 0.0875 | x1 = 0.1658 | x1 = 0.2536 | x1 = 0.3656 | x1 = 0.4856 | x1 = 0.5902 | x1 = 0.6816 | x1 = 0.7704 | x1 = 0.8841
303.15 K | 1.101 | 1.438 | 1.814 | 2.291 | 2.797 | 3.235 | 3.613 | 3.98 | 4.448
308.15 K | 1.037 | 1.353 | 1.704 | 2.148 | 2.617 | 3.022 | 3.372 | 3.711 | 4.139
313.15 K | 0.974 | 1.27 | 1.596 | 2.004 | 2.436 | 2.808 | 3.13 | 3.439 | 3.829

COCCOC + CCO
298.15 K, 101 kPa
Details | viscosity [mPa·s]
x1 = 0.05375 | 0.9565
x1 = 0.1133 | 0.8329
x1 = 0.1797 | 0.7369
x1 = 0.2542 | 0.663
x1 = 0.3383 | 0.5931
x1 = 0.434 | 0.5444
x1 = 0.544 | 0.4926
x1 = 0.8215 | 0.4356

O=C(O)c1ccccc1 + c1ccccc1
viscosity
Details | 303.15 K | 308.15 K | 313.15 K | 318.15 K
101 kPa, x1 = 0.0581 | 0.6414 mPa·s | 0.5991 mPa·s | 0.5625 mPa·s | 0.5267 mPa·s
101 kPa, x1 = 0.105 | – | 0.6626 mPa·s | 0.622 mPa·s | 0.5832 mPa·s
101.33 kPa, x1 = 0.0581 | 0.6414 mPa·s | 0.5991 mPa·s | 0.5625 mPa·s | 0.5267 mPa·s
101.33 kPa, x1 = 0.05813 | – | 0.5991 mPa·s | – | 0.5267 mPa·s
101.33 kPa, x1 = 0.06979 | – | 0.616 mPa·s | – | 0.5401 mPa·s
101.33 kPa, x1 = 0.08477 | – | 0.6421 mPa·s | – | 0.56 mPa·s
101.33 kPa, x1 = 0.105 | – | 0.6626 mPa·s and 0.6626 mPa·s | 0.622 mPa·s | 0.5832 mPa·s and 0.5832 mPa·s
101.33 kPa, x1 = 0.1232 | – | – | – | 0.61 mPa·s
